Assay [1] deals with mAb 1H8. Format: binding, mouse.
A further assay relates to mAb 1F1. Format: binding, mouse.
For assay [2], the system named is human pneumococcal reference serum 007sp (pooled sera of humans immunized with Pneumovax). Format: binding.
For assay [3], the system named is mAb 1H8. Kind of assay: Surface plasmon resonance with captured mAb 1H8. Format: binding, mouse. As to conditions: saccharide 18 at 20 μM, polysaccharides at 10 μg/mL in PBS. The method, then:
Surface Plasmon Resonance was performed on a Biacore T100 instrument (GE Healthcare). Analysis was performed using the Mouse Antibody Capture Kit and Amine Coupling Kit (GE Healthcare) for immobilization. About 10000 response units (RU) of capture antibody were immobilized. A commercial mouse IgG (cat. no. 026502, Invitrogen, Carlsbad, US) was immobilized as a dummy in a reference cell (about 10000 RU). About 800 RU of mAb 1H8 were captured prior to every run using a mAb concentration of 50 μg/mL. Runs were performed using PBS as a running buffer and a flow rate of 30 μL/min with 60 s association and 120 s dissociation periods, respectively. Polysaccharides were used at a concentration of 10 μg/mL and saccharide 18 at 20 μM in PBS.
For orientation: In SPR one partner is held on a chip, and binding of the other changes the refractive index at the surface.

Take `NCCO[C@H]1OC(CO)[C@H](O[C@H]2OC(CO)[C@@H](O[C@@H]3OC(CO)[C@@H](O)[C@H](O)C3O)[C@H](O)C2O)[C@H](O)C1O` (stereo partly drawn) [saccharide 62, β-D-Glucoyranosyl-(1→4)-α-D-glucopyranosyl-(1→4)-α-D-galactopyranosyl-(1→1)-(2-amino)ethanol]: in the assay on mAb 1H8 [1], the “recognition by mAb 1H8” value was “recognized with similar intensities”. Besides, the “recognition by mAb 1F1” value in the assay with mAb 1F1 is listed as “recognized with similar intensities”.
Take `NCCO[C@H]1OC(CO)[C@H](O[C@H]2OC(CO)[C@@H](O[C@@H]3OC(CO)[C@@H](O[C@@H]4OC(C(=O)O)[C@@H](O[C@H]5OC(CO)[C@H](O)[C@H](O)C5O)[C@H](O)C4O)[C@H](O)C3O)[C@H](O)C2O)[C@H](O)C1O` (stereo partly drawn) [saccharide 55, α-D-galactopyranosyl-(1→4)-β-D-glucopyranosyluronate-(1→4)-β-D-glucoyranosyl-α-D-glucopyranosyl-(1→4)-α-D-galactopyranosyl-(1→1)-(2-amino)ethanol]: in the assay on mAb 1H8 [1], the “binding of mAb 1H8 after inhibition with native SP8 polysaccharide” value was “abrogated” and the “recognition by mAb 1H8” value is “recognized with similar intensities”. In addition, in the assay with mAb 1F1, the “binding of mAb 1F1 after inhibition with native SP8 polysaccharide” value is on record as “abrogated” and the “recognition by mAb 1F1” value is “recognized with similar intensities”.
Regarding `NCCO[C@H]1OC(CO)[C@H](O[C@H]2OC(CO)[C@@H](O[C@@H]3OC(CO)[C@@H](O[C@@H]4OC(CO)[C@@H](O)[C@H](O)C4O)[C@H](O)C3O)[C@H](O)C2O)[C@H](O)C1O` (stereo partly drawn) [saccharide 60, β-D-Glucopyranosyl-(1→4)β-D-glucoyranosyl-(1→4)-α-D-glucopyranosyl-(1→4)-α-D-galactopyranosyl-(1→1)-(2-amino)ethanol], the “recognition by mAb 1H8” value in the assay with mAb 1H8 [1] is given as “recognized with similar intensities”. The “recognition by mAb 1F1” value in the assay on mAb 1F1 is “recognized with similar intensities”.
`NCCO[C@H]1OC(CO)[C@H](O[C@H]2OC(CO)[C@@H](O[C@@H]3OC(CO)[C@@H](O[C@@H]4OC(C(=O)O)[C@@H](O)[C@H](O)C4O)[C@H](O)C3O)[C@H](O)C2O)[C@H](O)C1O` (stereo partly drawn) [saccharide 18, β-D-Glucopyranosyluronic acid-(1→4)β-D-glucoyranosyl-(1→4)-α-D-glucopyranosyl-(1→4)-α-D-galactopyranosyl-(1→1)-(2-amino)ethanol]: in assay [2], the “interaction with the antiserum from human vaccinated with Pneumovax23” value is “Robust interactions” and the “recognition by antiserum from human vaccinated with Pneumovax23 (007sp)” value was “recognized”. Besides, the “recognition by mAb 1H8 (surface plasmon resonance)” value in the assay with mAb 1H8 [3] is recorded as “specifically recognizes”.
For the molecule `NCCO[C@H]1OC(CO)[C@H](O[C@H]2OC(CO)[C@@H](O[C@@H]3OC(CO)[C@@H](O[C@@H]4OC(C(=O)O)[C@@H](O[C@H]5OC(CO)[C@H](O[C@H]6OC(CO)[C@@H](O)[C@H](O)C6O)[C@H](O)C5O)[C@H](O)C4O)[C@H](O)C3O)[C@H](O)C2O)[C@H](O)C1O` (stereo partly drawn) [saccharide 57, α-D-glucopyranosyl-(1→4)-α-D-galactopyranosyl-(1→4)-β-D-glucopyranosyluronate-(1→4)-β-D-glucoyranosyl-(1→4)-α-D-glucopyranosyl-(1→4)-α-D-galactopyranosyl-(1→1)-(2-amino)ethanol], in the assay on mAb 1H8 [1], the “binding of mAb 1H8 after inhibition with native SP8 polysaccharide” value is recorded as “abrogated” and the “recognition by mAb 1H8” value is on record as “recognized with similar intensities”. Also, in the assay with mAb 1F1, the “binding of mAb 1F1 after inhibition with native SP8 polysaccharide” value is “abrogated” and the “recognition by mAb 1F1” value is “recognized with similar intensities”.

These data come from patent US10220083B2 (priority 2014, dated 2019).
